Laboratory results reported in ChEMBL document CHEMBL4831544, “Discovery of IHMT-EZH2-115 as a Potent and Selective Enhancer of Zeste Homolog 2 (EZH2) Inhibitor for the Treatment of B-Cell Lymphomas” (J Med Chem, 2021).

Assays:
[1] = tested on: KARPAS-422; assay: Antitumor activity against human KARPAS-422 cells harboring EZH2 Y641N mutant xenografted in NCG mouse assessed as change in tumor weight at 200 mg/kg, po BID via gavage measured after 28 days (reference value: 2.14 g); type: functional; conditions: time 28 day
[2] = molecular target: Protein arginine N-methyltransferase 5 (Homo sapiens) (UniProt O14744); assay: Inhibition of PRMT5 (unknown origin) at 10 uM using SAM as substrate measured up to 960 mins by AlphaScreen microplate reader assay relative to control; conditions: time min <=960
[3] = Apparent volume of distribution in mouse at 1 mg/kg, iv measured up to 24 hrs by LC-MS/MS analysis; type: ADME, organism-based; conditions: in vivo
[4] = molecular target: N-lysine methyltransferase SMYD2 (Homo sapiens) (UniProt Q9NRG4); assay: Inhibition of SMYD2 (unknown origin) at 10 uM using SAM as substrate measured up to 960 mins by AlphaScreen microplate reader assay relative to control; conditions: time min <=960
[5] = molecular target: Histone-lysine N-methyltransferase SMYD3 (Homo sapiens) (UniProt Q9H7B4); assay: Inhibition of SMYD3 (unknown origin) at 10 uM using SAM as substrate measured up to 960 mins by AlphaScreen microplate reader assay relative to control; conditions: time min <=960
[6] = tested on: Histone-lysine N-methyltransferase EZH2 (Homo sapiens), Q15910 [Y641S]; assay: Inhibition of EZH2 Y641S mutant (unknown origin) at 10 uM using SAM as substrate measured up to 960 mins by AlphaScreen microplate reader assay relative to control; conditions: time min <=960
[7] = Cmax in mouse at 10 mg/kg, po measured up to 24 hrs by LC-MS/MS analysis; type: ADME, organism-based; design: route oral, dose 10 mg/kg, time <=24; conditions: in vivo
[8] = tested on: Pfeiffer; assay: Antiproliferative activity against human Pfeiffer cells harboring EZH2 A677G mutant assessed as inhibition of cell growth measured after 6 days by CellTiter-Glo luminescent assay; type: functional; conditions: 144 h, time 6 day
[9] = tested on: KARPAS-422; assay: Antiproliferative activity against human KARPAS-422 cells harboring EZH2 Y641N mutant assessed as inhibition of cell growth measured after 6 days by CellTiter-Glo luminescent assay; type: functional; conditions: KARPAS-422, 144 h, time 6 day
[10] = Cmax in rat at 1 mg/kg, iv; type: ADME, organism-based; design: route intravenous, dose 1 mg/kg; conditions: in vivo
[11] = tested on: KARPAS-422; assay: Antitumor activity against human KARPAS-422 cells harboring EZH2 Y641N mutant xenografted in NCG mouse assessed as change in tumor weight at 100 mg/kg, po BID via gavage measured after 28 days (reference value: 2.14 g); type: functional; conditions: time 28 day
[12] = AUC (0 to infinity) in mouse at 10 mg/kg, po measured up to 24 hrs by LC-MS/MS analysis; type: ADME, organism-based; design: route oral, dose 10 mg/kg, time <=24; conditions: in vivo
[13] = tested on: Histone-lysine N-methyltransferase EZH2 (Homo sapiens), Q15910 [P132S]; assay: Inhibition of EZH2 P132S mutant (unknown origin) at 10 uM using SAM as substrate measured up to 960 mins by AlphaScreen microplate reader assay relative to control; conditions: time min <=960
[14] = tested on: Histone-lysine N-methyltransferase EZH2 (Homo sapiens), Q15910 [Y641H]; assay: Inhibition of EZH2 Y641H mutant (unknown origin) at 10 uM using SAM as substrate measured up to 960 mins by AlphaScreen microplate reader assay relative to control; conditions: time min <=960
[15] = molecular target: F-box only protein 11 (Homo sapiens) (UniProt Q86XK2); assay: Inhibition of PRMT9 (unknown origin) at 10 uM using SAM as substrate measured up to 960 mins by AlphaScreen microplate reader assay relative to control; conditions: time min <=960
[16] = Clearance in mouse at 1 mg/kg, iv measured up to 24 hrs by LC-MS/MS analysis; type: ADME, organism-based; conditions: in vivo
[17] = Apparent volume of distribution in rat at 1 mg/kg, iv; type: ADME, organism-based; conditions: in vivo, read-out: Vz
[18] = tested on: Daudi; assay: Antiproliferative activity against human Daudi cells expressing wild type EZH2 assessed as inhibition of cell growth measured after 6 days by CellTiter-Glo luminescent assay; conditions: 144 h
[19] = Clearance in rat at 1 mg/kg, iv; type: ADME, organism-based; conditions: in vivo
[20] = molecular target: Histone-lysine N-methyltransferase, H3 lysine-79 specific (Homo sapiens) (UniProt Q8TEK3); assay: Inhibition of DOT1L (unknown origin) at 10 uM using SAM as substrate measured up to 960 mins by AlphaScreen microplate reader assay relative to control; conditions: time min <=960
[21] = molecular target: Protein arginine N-methyltransferase 3 (Homo sapiens) (UniProt O60678); assay: Inhibition of PRMT3 (unknown origin) at 10 uM using SAM as substrate measured up to 960 mins by AlphaScreen microplate reader assay relative to control; conditions: time min <=960
[22] = Antiproliferative activity against human WSUDLCL2 cells assessed as inhibition of cell growth measured after 6 days by CellTiter-Glo luminescent assay; type: functional; conditions: WSUDLCL2, 144 h, time 6 day
[23] = molecular target: Histone-lysine N-methyltransferase 2A (Homo sapiens) (UniProt Q03164); assay: Inhibition of MLL1 (unknown origin) at 10 uM using SAM as substrate measured up to 960 mins by AlphaScreen microplate reader assay relative to control; conditions: time min <=960
[24] = tested on: U2932; assay: Antiproliferative activity against human U2932 cells expressing wild type EZH2 assessed as inhibition of cell growth measured after 6 days by CellTiter-Glo luminescent assay; type: functional; conditions: U2932, 144 h, time 6 day
[25] = Antiproliferative activity against human WSUDLCL2 cells harboring EZH2 Y641F mutant assessed as inhibition of cell growth measured after 6 days by CellTiter-Glo luminescent assay; type: functional; conditions: WSUDLCL2, 144 h, time 6 day
[26] = tested on: Histone-lysine N-methyltransferase EZH2 (Homo sapiens), Q15910 [Y641N]; assay: Inhibition of EZH2 Y641N mutant (unknown origin) at 10 uM using SAM as substrate measured up to 960 mins by AlphaScreen microplate reader assay relative to control; conditions: time min <=960
[27] = tested on: SU-DHL-6; assay: Antiproliferative activity against human SU-DHL-6 cells harboring EZH2 Y641N mutant assessed as inhibition of cell growth measured after 6 days by CellTiter-Glo luminescent assay; type: functional; conditions: SU-DHL-6, 144 h, time 6 day
[28] = tested on: Pfeiffer; assay: Antitumor activity against human Pfeiffer cells harboring EZH2 A677G mutant xenografted in NCG mouse assessed as tumor growth inhibition at 50 mg/kg, po BID via gavage measured after 28 days relative to control; type: functional; conditions: 672 h, time 28 day, read-out: TGI
[29] = Half life in mouse at 1 mg/kg, iv measured up to 24 hrs by LC-MS/MS analysis; type: ADME, organism-based; conditions: in vivo
[30] = Half life in rat at 1 mg/kg, iv; type: ADME, organism-based; conditions: in vivo
[31] = tested on: KARPAS-422; assay: Antitumor activity against human KARPAS-422 cells harboring EZH2 Y641N mutant xenografted in NCG mouse assessed as tumor growth inhibition at 100 mg/kg, po BID via gavage measured after 28 days relative to control; type: functional; conditions: KARPAS-422, po, 672 h, time 28 day, read-out: TGI
[32] = AUC (0 to t) in mouse at 10 mg/kg, po measured up to 24 hrs by LC-MS/MS analysis; type: ADME, organism-based; design: route oral, dose 10 mg/kg, time <=24; conditions: in vivo
[33] = molecular target: Histone-lysine N-methyltransferase NSD2 (Homo sapiens) (UniProt O96028); assay: Inhibition of NSD2 (unknown origin) at 10 uM using SAM as substrate measured up to 960 mins by AlphaScreen microplate reader assay relative to control; conditions: time min <=960

Chain of Histone-lysine N-methyltransferase SMYD3 (Homo sapiens) (Q9H7B4 whole entry): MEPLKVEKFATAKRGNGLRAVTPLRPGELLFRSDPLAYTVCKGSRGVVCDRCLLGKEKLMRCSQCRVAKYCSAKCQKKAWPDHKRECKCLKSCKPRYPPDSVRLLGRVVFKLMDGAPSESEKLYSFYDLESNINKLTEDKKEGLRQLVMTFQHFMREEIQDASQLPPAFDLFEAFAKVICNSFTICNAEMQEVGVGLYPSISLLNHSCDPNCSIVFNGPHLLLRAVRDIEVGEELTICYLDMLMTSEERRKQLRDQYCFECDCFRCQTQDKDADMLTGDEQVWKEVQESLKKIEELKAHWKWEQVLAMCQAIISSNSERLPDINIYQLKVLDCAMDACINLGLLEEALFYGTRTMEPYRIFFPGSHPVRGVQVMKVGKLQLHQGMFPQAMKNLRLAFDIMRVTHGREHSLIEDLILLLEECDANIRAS
Chain of Protein arginine N-methyltransferase 3 (Homo sapiens) (O60678 2-531 limits assumed): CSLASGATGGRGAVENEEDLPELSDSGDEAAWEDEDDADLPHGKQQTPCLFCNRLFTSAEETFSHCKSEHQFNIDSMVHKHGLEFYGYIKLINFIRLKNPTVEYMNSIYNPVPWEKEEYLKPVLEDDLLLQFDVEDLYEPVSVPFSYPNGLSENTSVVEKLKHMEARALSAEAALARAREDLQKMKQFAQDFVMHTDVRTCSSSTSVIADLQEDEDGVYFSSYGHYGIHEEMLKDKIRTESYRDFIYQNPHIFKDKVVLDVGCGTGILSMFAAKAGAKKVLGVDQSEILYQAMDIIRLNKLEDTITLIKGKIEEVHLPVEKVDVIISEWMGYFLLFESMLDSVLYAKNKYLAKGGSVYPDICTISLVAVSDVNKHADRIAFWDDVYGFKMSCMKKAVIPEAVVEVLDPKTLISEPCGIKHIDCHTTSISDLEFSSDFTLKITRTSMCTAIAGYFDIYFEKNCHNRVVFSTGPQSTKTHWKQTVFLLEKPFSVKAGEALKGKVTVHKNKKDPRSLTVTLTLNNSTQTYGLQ
Chain of Histone-lysine N-methyltransferase EZH2 (Homo sapiens), Q15910 [Y641H] (Q15910 whole entry Y641H): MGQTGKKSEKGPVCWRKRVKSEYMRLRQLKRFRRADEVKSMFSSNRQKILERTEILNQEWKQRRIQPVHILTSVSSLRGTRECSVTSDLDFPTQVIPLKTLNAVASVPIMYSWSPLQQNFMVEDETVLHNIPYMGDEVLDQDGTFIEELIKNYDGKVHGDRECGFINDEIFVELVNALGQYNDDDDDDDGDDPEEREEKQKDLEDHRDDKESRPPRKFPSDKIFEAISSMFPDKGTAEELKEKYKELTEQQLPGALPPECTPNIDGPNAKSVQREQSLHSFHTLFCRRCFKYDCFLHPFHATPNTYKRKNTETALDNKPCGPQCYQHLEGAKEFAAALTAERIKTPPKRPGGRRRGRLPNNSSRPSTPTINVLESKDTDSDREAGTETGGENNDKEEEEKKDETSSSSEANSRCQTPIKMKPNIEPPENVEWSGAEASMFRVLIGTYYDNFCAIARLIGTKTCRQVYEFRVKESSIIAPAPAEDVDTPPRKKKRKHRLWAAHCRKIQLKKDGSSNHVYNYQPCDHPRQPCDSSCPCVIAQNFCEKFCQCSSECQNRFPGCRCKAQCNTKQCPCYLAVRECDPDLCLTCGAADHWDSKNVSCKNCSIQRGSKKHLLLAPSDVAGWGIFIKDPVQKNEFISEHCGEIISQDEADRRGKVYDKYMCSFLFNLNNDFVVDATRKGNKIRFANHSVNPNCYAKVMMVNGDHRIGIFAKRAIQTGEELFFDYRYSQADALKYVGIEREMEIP
Chain of Histone-lysine N-methyltransferase, H3 lysine-79 specific (Homo sapiens) (Q8TEK3 whole entry, looked up): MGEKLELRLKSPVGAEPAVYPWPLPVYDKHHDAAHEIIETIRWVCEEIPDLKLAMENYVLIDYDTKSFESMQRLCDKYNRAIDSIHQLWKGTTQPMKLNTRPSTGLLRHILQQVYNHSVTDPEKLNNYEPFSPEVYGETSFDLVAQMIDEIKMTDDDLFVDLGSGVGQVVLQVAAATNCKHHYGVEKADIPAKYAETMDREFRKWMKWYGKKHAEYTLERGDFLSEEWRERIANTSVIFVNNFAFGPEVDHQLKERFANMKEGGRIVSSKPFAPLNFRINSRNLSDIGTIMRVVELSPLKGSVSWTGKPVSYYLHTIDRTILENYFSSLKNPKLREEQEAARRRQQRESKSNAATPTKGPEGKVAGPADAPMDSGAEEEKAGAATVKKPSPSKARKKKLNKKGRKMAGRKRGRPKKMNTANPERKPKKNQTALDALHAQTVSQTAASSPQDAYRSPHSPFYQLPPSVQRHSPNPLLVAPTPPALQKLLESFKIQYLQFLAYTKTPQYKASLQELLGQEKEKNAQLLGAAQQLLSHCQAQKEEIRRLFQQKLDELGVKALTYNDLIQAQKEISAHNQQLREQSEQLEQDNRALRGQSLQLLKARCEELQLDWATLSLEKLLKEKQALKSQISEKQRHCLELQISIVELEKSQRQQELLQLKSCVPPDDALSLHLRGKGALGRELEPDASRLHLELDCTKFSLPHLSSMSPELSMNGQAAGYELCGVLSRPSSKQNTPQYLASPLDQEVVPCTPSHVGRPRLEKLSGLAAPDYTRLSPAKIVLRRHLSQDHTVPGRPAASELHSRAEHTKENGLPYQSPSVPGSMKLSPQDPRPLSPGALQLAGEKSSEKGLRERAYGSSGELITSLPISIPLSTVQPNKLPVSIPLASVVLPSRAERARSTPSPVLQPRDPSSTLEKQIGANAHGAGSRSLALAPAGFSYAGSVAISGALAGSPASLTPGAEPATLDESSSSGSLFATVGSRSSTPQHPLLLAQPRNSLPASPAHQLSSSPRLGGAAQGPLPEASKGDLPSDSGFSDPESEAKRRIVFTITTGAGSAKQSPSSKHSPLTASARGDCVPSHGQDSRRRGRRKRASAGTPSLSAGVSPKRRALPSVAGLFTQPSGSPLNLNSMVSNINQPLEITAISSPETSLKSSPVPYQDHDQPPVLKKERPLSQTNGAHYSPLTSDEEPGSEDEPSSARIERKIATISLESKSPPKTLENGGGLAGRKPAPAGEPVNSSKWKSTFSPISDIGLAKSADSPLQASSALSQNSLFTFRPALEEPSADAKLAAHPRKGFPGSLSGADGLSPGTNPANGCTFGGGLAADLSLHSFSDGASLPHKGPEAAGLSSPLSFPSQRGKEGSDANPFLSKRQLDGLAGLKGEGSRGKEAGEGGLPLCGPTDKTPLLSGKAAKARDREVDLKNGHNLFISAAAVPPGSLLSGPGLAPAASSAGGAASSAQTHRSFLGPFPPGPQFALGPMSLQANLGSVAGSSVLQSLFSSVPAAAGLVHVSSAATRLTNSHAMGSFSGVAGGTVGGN
Chain of N-lysine methyltransferase SMYD2 (Homo sapiens) (Q9NRG4 whole entry): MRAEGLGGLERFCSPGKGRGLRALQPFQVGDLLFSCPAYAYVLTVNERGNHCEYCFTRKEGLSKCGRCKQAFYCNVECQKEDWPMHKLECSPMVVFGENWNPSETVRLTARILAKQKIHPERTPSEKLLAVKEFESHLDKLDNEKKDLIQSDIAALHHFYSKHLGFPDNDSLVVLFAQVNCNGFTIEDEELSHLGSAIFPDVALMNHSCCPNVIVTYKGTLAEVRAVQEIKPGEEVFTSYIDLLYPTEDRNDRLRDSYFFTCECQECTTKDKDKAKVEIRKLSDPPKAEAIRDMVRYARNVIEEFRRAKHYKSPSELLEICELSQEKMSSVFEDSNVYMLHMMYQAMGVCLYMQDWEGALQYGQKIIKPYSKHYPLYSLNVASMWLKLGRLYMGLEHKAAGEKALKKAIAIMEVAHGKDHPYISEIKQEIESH
Chain of Protein arginine N-methyltransferase 5 (Homo sapiens) (O14744 whole entry): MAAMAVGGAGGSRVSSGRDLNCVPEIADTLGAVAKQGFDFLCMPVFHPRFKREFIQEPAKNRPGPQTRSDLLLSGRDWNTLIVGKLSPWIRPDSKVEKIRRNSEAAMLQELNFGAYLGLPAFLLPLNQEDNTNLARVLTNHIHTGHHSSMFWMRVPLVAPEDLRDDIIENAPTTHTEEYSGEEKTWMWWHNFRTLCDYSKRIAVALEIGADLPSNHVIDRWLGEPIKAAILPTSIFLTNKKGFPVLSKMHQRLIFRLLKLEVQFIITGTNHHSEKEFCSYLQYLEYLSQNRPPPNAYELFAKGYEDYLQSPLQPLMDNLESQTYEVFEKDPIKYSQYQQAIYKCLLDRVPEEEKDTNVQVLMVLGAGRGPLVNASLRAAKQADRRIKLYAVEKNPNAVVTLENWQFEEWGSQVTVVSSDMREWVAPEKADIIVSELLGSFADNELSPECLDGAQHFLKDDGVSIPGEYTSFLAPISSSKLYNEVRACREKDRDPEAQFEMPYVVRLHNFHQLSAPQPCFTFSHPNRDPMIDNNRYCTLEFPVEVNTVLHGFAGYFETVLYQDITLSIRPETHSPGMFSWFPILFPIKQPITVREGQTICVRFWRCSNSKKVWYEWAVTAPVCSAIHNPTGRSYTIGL
Chain of Histone-lysine N-methyltransferase EZH2 (Homo sapiens), Q15910 [Y641S] (Q15910 whole entry Y641S): as the sequence (Q15910 whole entry Y641H) above, with H641S counted along it
Chain of Histone-lysine N-methyltransferase EZH2 (Homo sapiens), Q15910 [P132S] (Q15910 whole entry P132S): as the sequence (Q15910 whole entry Y641H) above, with P132S, H641Y counted along it
Chain of Histone-lysine N-methyltransferase EZH2 (Homo sapiens), Q15910 [Y641N] (Q15910 whole entry Y641N): as the sequence (Q15910 whole entry Y641H) above, with H641N counted along it

inhibition [2]: 0%
Vz [3]: 20.833 L/kg
inhibition [4]: 0%
inhibition [5]: 16%
inhibition [6]: 90%
Cmax [7]: 671 ng/mL
GI50 [9]: 50 nM
Cmax [10]: 406 ng/mL
AUC(0-inf) [12]: 1000 ng·h/mL
inhibition [13]: 100%
inhibition [14]: 81%
inhibition [15]: 9%
CL [16]: 44.75 mL/min/kg
Vd [17]: 9.1 L/kg
GI50 [18]: > 10000 nM
clearance [19]: 85.5 mL/min/kg
inhibition [20]: 0%
inhibition [21]: 0%
inhibition [23]: 12%
inhibition [26]: 98%
GI50 [27]: 1100 nM
t1/2 [29]: 5.38 h
half-life [30]: 1.82 h
AUC(0-t) at 24 h [32]: 1000 ng·h/mL
inhibition [33]: 10%
SMILES: CCN(C(=O)C1CC1)c1cc(-c2ccc(N3CCN(CC4CC4)CC3)nc2C)cc(C(=O)NCc2c(C)cc(C)[nH]c2=O)c1C
Activity [1]: 0.057 g
GI50 [8]: 3 nM
Activity [11]: 0.64 g
GI50 [22]: 200 nM
GI50 [24]: > 10000 nM
GI50 [25]: 140 nM
inhibition in vivo at 50 mg/kg [28]: 91.8%
inhibition in vivo at 100 mg/kg [31]: 70.1%
